Laboratory results taken from PMC2784364, “VX-166: a novel potent small molecule caspase inhibitor as a potential therapy for sepsis” (Critical Care, 2009).
Entries after “also recorded” stand apart in the source; their conditions may differ.

Key:
PBMC = PBMC viability (MTS assay); format: cell-based, human; conditions: MTS assay conducted simultaneously with cytokine release assays
Protocol: Peripheral blood mononuclear cells (PBMC) from healthy donors were isolated by Ficoll-Paque gradient centrifugation from buffy coats obtained from the National Blood Transfusion Service (Bristol, UK). For IL-1β release, 5 × 10^5 cells/ml were then stimulated with 50 ng/ml lipopolysaccharide (LPS) from Escherichia coli (Sigma-Aldrich Ltd., Poole, UK) in the presence or absence of VX-166 and incubated for 18 hours. Secretion of IL-1β into the supernatant was determined by ELISA (R&D Systems, Abingdon, UK) following the manufacturer's instructions. For IL-18 release, 7.5 × 10^5 cells/ml were stimulated with 6.25 × 10^-4% (w/v) Staphylococcus aureus cell suspension (SAC; Sigma-Aldrich Ltd., Poole, UK) in the presence or absence of VX-166 and incubated overnight. The IL-18 content in the supernatants was quantified by ELISA (Caltag-MedSystems Ltd., Buckingham, UK) following the manufacturer's instructions. In both assays PBMC viability was assessed after the 18 hours incubation time using MTS assay (Promega UK Ltd., Southampton, UK) to ensure that the reduction in cytokine release was not caused by a cytotoxic effect of the compound.

[1] = CLP rat, plasma endotoxin by LAL kit; format: in vivo; conditions: 20 hours, 25 mg/ml pump, n = 10, P < 0.05
Protocol: CLP studies were performed in accordance with the National Institutes of Health guidelines for the use of experimental animals and were approved by the Institutional Animal Care and Use Committee of the Feinstein Institute for Medical Research. Adult male Sprague-Dawley rats (weighing 275 to 325 g, Charles River Laboratories, Wilmington, MA, USA) were fasted overnight then anaesthetised with isoflurane. The caecum was exposed via a 2 cm midline incision. It was ligated just distal to the ileocaecal valve, then punctured twice with an 18-gauge needle and gently squeezed to release a small amount of faecal material to ensure patency of the perforation sites before the abdominal incision was closed. Sham-operated rats underwent the same procedure with the exception that the caecum was neither ligated nor punctured. […]
Blood samples were centrifuged at 1500 g for 15 minutes at 4°C, the plasma was removed and stored at -80°C until analysis. Plasma IL-1β levels were determined by ELISA (R&D Systems Inc., Minneapolis, MN, USA) following the manufacturer's instructions. Plasma endotoxin levels were determined using a Limulus amebocyte lysate (LAL) kit (Associates of Cape Cod, Inc., East Falmouth, MA, USA) according to the manufacturer's instruction. […] The optical density was determined at 405 nm using a spectrophotometer. The levels of endotoxin were then calculated and expressed as EU/ml.

CD-1 mice = test: Endotoxic shock in the mouse (LPS 20 mg/kg iv), survival; format: in vivo
Protocol: Endotoxic shock studies were approved by the Vertex Pharmaceuticals Institutional Animal Care and Use Committee. Adult male CD-1 mice (weighing 30 to 32 g; Charles River Laboratories, Wilmington, MA, USA) were administered LPS (from E. coli serotype 0111:B4, Sigma-Aldrich, St. Louis, MO, USA) at 20 mg/kg iv and survival was monitored for 96 hours (n = 28 per group). VX-166 or vehicle (10% propylene glycol: 90% sodium phosphate buffer pH 8) were administered by repeat iv bolus at 0 hours (co-injection with LPS), 4, 8 and 12 hours post-LPS. VX-166 was administered at 1, 3, 10 or 30 mg/kg.

[2] = tested on: human aorta endothelial cells (HAEC); test: Apoptosis assay in human aorta endothelial cells, serum withdrawal, DNA fragmentation; format: cell-based; conditions: Endothelial cell, Serum withdrawal and nutrient deprivation, 48 hours, n = 4, read-out: IC50, inhibition of apoptosis
Protocol: Human aorta endothelial cells (HAEC) were purchased from Cambrex Bio Science Wokingham Ltd., (Wokingham, UK) and cultured as recommended by the supplier. Apoptosis was induced in 5 × 10^4 cells/ml by addition of medium deprived of serum and growth factors. VX-166 was added at a range of concentrations as described above and the cells incubated for 48 hours at 37°C in an atmosphere of 5% CO2/95% humidity. Apoptosis was measured using a Cell Death Detection ELISA kit (Roche Diagnostics Ltd., Lewes, UK) following the manufacturer's instructions.

With `CCC(C(=O)NC(CC(=O)O)C(=O)COc1c(F)c(F)cc(F)c1F)n1cccc(NC(=O)OC)c1=O` (stereo not drawn) [VX-166] the “cytotoxic effect in PBMC viability assay” value (PBMC) was “not due to a cytotoxic effect”, the “plasma endotoxin level vs vehicle CLP” value [1] was “reduced plasma endotoxin levels; also recorded: reduced the level of endotoxin” and the “survival rate at 96 hours compared with vehicle control” value (CD-1 mice; LPS 20 mg/kg iv, 30 mg/kg iv at 0, 4, 8, 12 hours) was “more than doubled”. The “survival over 96 hours” value (CD-1 mice; LPS 20 mg/kg iv, 1, 3, 10 or 30 mg/kg repeat iv bolus at 0, 4, 8 and 12 hours post-LPS, vs vehicle) was “significantly improved survival in a dose-dependent fashion”, the “survival compared with vehicle control, second study” value (CD-1 mice; different batch of LPS, 30 mg/kg iv at 0, 4, 8, 12 hours, P < 0.0001) was “substantially improved survival” and the IC50 [2] was 310 ± 70 nM.
